Read-outs that look alike come from different tables or passages of the source. Blank lines part the entries; values can stand above or below the compound they belong to.
Tests used:
Type in all cases: binding
[1] = biological target: T1, GH13-5; pullulanase from Bacillus subtilis (Bacillus subtilis, UniProt C0SPA0); test: SPR (Biacore T100), biotinylated enzyme on streptavidin chip
T1 construct: gene amyX; commercial recombinant (Prozomix); contains CBM48; biotinylated, on streptavidin chip
T1 sequence (C0SPA0 1-718): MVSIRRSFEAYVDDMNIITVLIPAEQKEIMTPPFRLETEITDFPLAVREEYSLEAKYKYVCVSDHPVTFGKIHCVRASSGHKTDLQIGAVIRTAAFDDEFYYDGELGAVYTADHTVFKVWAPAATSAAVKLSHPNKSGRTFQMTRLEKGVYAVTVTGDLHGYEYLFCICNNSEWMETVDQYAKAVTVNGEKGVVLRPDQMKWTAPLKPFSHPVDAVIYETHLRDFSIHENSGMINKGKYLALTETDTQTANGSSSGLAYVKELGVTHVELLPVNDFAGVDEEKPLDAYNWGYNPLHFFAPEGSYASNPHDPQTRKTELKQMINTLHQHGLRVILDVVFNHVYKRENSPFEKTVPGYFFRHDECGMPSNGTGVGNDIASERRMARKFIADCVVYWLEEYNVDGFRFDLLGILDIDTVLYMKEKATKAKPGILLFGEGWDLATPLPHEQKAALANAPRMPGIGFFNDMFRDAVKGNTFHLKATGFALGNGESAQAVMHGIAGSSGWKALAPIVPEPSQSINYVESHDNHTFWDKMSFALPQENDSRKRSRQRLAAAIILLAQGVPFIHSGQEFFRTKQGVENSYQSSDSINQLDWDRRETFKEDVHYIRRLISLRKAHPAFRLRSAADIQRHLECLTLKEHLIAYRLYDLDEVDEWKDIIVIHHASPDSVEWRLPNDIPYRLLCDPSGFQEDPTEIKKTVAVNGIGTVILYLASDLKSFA
Source text: SPR (Biacore T100), biotinylated enzyme on streptavidin chip on GH13-5; pullulanase from Bacillus subtilis

[2] = biological target: T2, GH13-3; E. coli α-amylase (Escherichia coli, UniProt P26612); test: as above
T2 construct: gene amyA; commercial recombinant (Prozomix); biotinylated, on streptavidin chip; GH13 subfamily 5 implied by homology to Bacillus sp
T2 sequence (P26612 1-495): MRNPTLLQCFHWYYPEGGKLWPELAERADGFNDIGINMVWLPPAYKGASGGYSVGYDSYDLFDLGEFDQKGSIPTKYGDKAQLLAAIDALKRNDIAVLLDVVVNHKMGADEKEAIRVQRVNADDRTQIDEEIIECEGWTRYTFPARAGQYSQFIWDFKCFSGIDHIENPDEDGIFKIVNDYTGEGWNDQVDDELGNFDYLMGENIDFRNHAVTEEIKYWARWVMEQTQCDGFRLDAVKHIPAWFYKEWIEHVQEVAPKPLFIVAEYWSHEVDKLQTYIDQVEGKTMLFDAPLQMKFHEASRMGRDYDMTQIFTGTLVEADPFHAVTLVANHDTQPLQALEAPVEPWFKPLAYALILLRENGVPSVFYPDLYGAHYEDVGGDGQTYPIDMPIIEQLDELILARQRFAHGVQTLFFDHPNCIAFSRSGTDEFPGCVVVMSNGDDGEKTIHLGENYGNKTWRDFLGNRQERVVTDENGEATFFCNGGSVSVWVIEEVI
Source text: SPR (Biacore T100), biotinylated enzyme on streptavidin chip on GH13-3; E. coli α-amylase

[3] = biological target: T3, GH13-6; pig pancreatic α-amylase (Sus scrofa, UniProt P00690); test: as above
T3 construct: gene AMY2; native porcine pancreas enzyme from Sigma; biotinylated, on streptavidin chip
T3 sequence (P00690 16-511): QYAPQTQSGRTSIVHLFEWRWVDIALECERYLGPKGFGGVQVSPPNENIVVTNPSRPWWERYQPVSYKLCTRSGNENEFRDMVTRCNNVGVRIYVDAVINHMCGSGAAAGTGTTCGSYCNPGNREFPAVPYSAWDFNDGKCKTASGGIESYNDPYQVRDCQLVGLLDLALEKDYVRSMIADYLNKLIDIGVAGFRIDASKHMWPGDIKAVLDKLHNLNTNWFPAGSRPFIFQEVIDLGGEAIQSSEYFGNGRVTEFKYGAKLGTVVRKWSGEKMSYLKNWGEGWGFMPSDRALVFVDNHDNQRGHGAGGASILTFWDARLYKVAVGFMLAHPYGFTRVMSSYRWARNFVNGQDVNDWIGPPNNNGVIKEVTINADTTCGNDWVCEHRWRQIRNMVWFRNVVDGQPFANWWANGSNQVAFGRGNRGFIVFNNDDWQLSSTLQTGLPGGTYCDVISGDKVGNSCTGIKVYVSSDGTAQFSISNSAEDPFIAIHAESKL
Source text: SPR (Biacore T100), biotinylated enzyme on streptavidin chip on GH13-6; pig pancreatic α-amylase

[4] = biological target: T4, GH6-1; endoglucanase from Thermobifida fusca (Thermobifida fusca, UniProt P26222); test: SPR (Biacore T100), enzyme amine-coupled to CM5 chip; conditions: one-site fit; immobilised enzyme
T4 construct: gene celB; gift of David Wilson; amine-coupled to CM5 chip
Source text: SPR (Biacore T100), enzyme amine-coupled to CM5 chip on GH6-1; endoglucanase from Thermobifida fusca

[5] = biological target: T5, GH48-1; processive endoglucanase from Clostridium cellulolyticum (Ruminiclostridium cellulolyticum, UniProt P37698); test: as above; conditions: one-site fit; immobilised enzyme
T5 construct: gene celCCF; commercial recombinant (NZYtech), no CBM; amine-coupled to CM5 chip
T5 sequence (P37698 30-650 limits assumed): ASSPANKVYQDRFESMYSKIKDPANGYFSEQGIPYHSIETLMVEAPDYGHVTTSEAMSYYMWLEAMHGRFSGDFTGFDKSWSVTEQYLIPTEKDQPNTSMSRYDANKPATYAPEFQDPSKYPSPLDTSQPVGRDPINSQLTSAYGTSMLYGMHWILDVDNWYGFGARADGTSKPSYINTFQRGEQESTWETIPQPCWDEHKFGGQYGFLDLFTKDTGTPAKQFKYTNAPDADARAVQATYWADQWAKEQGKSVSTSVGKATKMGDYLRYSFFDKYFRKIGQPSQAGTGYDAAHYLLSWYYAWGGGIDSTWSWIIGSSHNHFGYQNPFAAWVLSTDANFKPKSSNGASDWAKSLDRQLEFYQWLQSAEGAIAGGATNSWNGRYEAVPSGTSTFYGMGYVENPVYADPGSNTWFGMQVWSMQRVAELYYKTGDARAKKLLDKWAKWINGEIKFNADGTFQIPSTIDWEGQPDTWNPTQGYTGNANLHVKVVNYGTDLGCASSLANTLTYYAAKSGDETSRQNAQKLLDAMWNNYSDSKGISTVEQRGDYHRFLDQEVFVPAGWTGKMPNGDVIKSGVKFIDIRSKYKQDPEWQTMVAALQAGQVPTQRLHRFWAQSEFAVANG
Source text: SPR (Biacore T100), enzyme amine-coupled to CM5 chip on GH48-1; processive endoglucanase from Clostridium cellulolyticum

[6] = biological target: T6, GH8-1; endoglucanase from Clostridium thermocellum (Acetivibrio thermocellus, UniProt A3DC29); test: as above; conditions: one-site fit; immobilised enzyme; stoichiometry above 2 (several sites)
T6 construct: gene celA; commercial recombinant (NZYtech), no CBM; amine-coupled to CM5 chip
T6 sequence (A3DC29 33-477): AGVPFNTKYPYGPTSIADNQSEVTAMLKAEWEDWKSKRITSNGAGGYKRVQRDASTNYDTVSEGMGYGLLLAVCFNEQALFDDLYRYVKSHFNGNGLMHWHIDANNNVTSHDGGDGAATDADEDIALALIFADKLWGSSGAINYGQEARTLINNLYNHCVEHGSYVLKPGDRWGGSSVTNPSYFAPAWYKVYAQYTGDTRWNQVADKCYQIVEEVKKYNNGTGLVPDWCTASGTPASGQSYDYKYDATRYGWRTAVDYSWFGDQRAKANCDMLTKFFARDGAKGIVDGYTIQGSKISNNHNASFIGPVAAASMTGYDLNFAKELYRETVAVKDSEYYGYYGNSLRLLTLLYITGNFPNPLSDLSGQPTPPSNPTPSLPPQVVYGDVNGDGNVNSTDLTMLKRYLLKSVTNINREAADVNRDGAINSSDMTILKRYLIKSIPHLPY
Source text: SPR (Biacore T100), enzyme amine-coupled to CM5 chip on GH8-1; endoglucanase from Clostridium thermocellum

[7] = biological target: T6, GH8-1; endoglucanase from Clostridium thermocellum; test: as above; conditions: immobilised enzyme; ligand 10-5000 μM; weak, not saturable

T4 sequence (P26222 32-322 limits assumed): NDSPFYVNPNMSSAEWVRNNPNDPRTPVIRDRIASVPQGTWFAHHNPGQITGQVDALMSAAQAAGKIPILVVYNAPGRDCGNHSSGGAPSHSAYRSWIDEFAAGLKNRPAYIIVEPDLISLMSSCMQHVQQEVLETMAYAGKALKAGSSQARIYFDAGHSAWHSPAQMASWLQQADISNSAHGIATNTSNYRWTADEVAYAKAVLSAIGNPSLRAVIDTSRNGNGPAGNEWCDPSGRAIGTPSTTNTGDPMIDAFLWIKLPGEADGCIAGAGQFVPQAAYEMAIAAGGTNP

Compound: OC[C@H]1O[C@@H]2O[C@H]3[C@H](O)[C@@H](O)[C@@H](O[C@H]4[C@H](O)[C@@H](O)[C@@H](O[C@H]5[C@H](O)[C@@H](O)[C@@H](O[C@H]6[C@H](O)[C@@H](O)[C@@H](O[C@H]7[C@H](O)[C@@H](O)[C@@H](O[C@H]8[C@H](O)[C@@H](O)[C@@H](O[C@H]1[C@H](O)[C@H]2O)O[C@@H]8CO)O[C@@H]7CO)O[C@@H]6CO)O[C@@H]5CO)O[C@@H]4CO)O[C@@H]3CO [β-cyclodextrin]
Kd [1]: 970 ± 130 µM
Kd [2]: 1360 ± 50 µM
Kd [3]: 870 ± 400 µM

Kd ([3]; one-site fit, immobilised enzyme, stoichiometry above 1 (several sites)): 1330 ± 120 µM
Compound: OC[C@H]1O[C@H](O[C@H]2[C@H](O)[C@@H](O)[C@@H](O[C@H]3[C@H](O)[C@@H](O)[C@@H](O[C@H]4[C@H](O)[C@@H](O)[C@@H](O[C@H]5[C@H](O)[C@@H](O)[C@@H](O[C@H]6[C@H](O)[C@@H](O)C(O)O[C@@H]6CO)O[C@@H]5CO)O[C@@H]4CO)O[C@@H]3CO)O[C@@H]2CO)[C@H](O)[C@@H](O)[C@@H]1O (stereo partly drawn) [maltohexaose]

Kd [4]: 330 ± 110 µM
Kd [5]: 2070 ± 780 µM
Kd [6]: 860 ± 90 µM
Compound: OC[C@H]1O[C@@H](O[C@H]2[C@H](O)[C@@H](O)[C@H](O[C@H]3[C@H](O)[C@@H](O)[C@H](O[C@H]4[C@H](O)[C@@H](O)[C@H](O[C@H]5[C@H](O)[C@@H](O)C(O)O[C@@H]5CO)O[C@@H]4CO)O[C@@H]3CO)O[C@@H]2CO)[C@H](O)[C@@H](O)[C@@H]1O (stereo partly drawn) [cellopentaose]

Compound: OC1OC[C@@H](O[C@@H]2OC[C@@H](O[C@@H]3OC[C@@H](O[C@@H]4OC[C@@H](O)[C@H](O)[C@H]4O)[C@H](O)[C@H]3O)[C@H](O)[C@H]2O)[C@H](O)[C@H]1O (stereo partly drawn) [xylotetraose]
NS [7]: GH8-1 interacts weakly with these oligosaccharides

Compound: OC[C@H]1O[C@H](O[C@H]2[C@H](O)[C@@H](O)[C@@H](O[C@H]3[C@H](O)[C@@H](O)[C@@H](O[C@H]4[C@H](O)[C@@H](O)C(O)O[C@@H]4CO)O[C@@H]3CO)O[C@@H]2CO)[C@H](O)[C@@H](O)[C@@H]1O (stereo partly drawn) [maltotetraose]
NS [7]: GH8-1 interacts weakly with these oligosaccharides

From article PMC4978508, “Using Carbohydrate Interaction Assays to Reveal Novel Binding Sites in Carbohydrate Active Enzymes” (PLoS ONE, 2016)
